“Also recorded” adds a separate entry of the source.
Legend:
[1] = tested on: appropriate patient population; conditions: approximately; when given to an appropriate patient population; cited from earlier work
skin = skin reactions during treatment with sunitinib and sorafenib; cited from earlier work
[2] = tested on: patients with metastatic lung adenocarcinoma with EGFR mutations; conditions: cited from earlier work
[3] = tested on: patients with non-small cell lung cancer (NSCLC); conditions: afatinib 40 mg/day for 90 days, cited from earlier work
[4] = tested on: skin and subcutaneous tissue; conditions: EMA marketing authorization documentation; cited from earlier work
[5] = tested on: patients with EGFR mutation-positive non-small-cell lung cancer; conditions: LUX-Lung 7, cited from earlier work
[6] = tested on: Asian patients with advanced non-small-cell lung cancer harboring EGFR mutations; conditions: cited from earlier work
[7] = tested on: patients with metastatic lung cancer; assay: Retrospective study of prophylactic dermatological treatment with polydatin cream on cutaneous toxicity of afatinib (NCI-CTCAE v3.0 grading); type: in vivo; conditions: for Incidence of skin rash, All grades (%) / Incidence of skin rash, Grade 1 (%) / Incidence of skin rash, Grade 2 (%) / Incidence of skin rash, Grade 3 (%): 1.5% polydatin cream twice a day
Text: The main exclusion criteria were: poor patient compliance; allergy or sensitivity to polydatin; current or previous treatment with topical or oral antioxidant drugs; concomitant skin diseases.
The retrospective study was specifically designed to evaluate a proactive management of EGFR-mediated skin toxicity, in order to minimize the possibility of having to reduce the dose or suspend the antitumor treatment.
Patients were monitored every 7 days for the first month, and thereafter every 20 days or when needed.
Data about severity, duration and management of cutaneous toxicity induced by TKI were analyzed in all patients treated using a descriptive statistic.
The scale used for the classification of cutaneous toxicities induced by EGFR-targeted therapies was the classification scale of the Common Terminology Criteria for Adverse Events of the National Cancer Institute.

[8] = of the 160 (afatinib) / 159 (gefitinib) patients treated
[9] = term used for a group of adverse events
[10] = Cutaneous rash, all patients (n = 34), afatinib 40 mg/day

## COc1cc2ncnc(Nc3ccc(F)c(Cl)c3)c2cc1OCCCN1CCOCC1 [Gefitinib, gefitinib]
[1]
  response rates: 60-70%

## CCN(CC)CCNC(=O)c1c(C)[nH]c(/C=C2\C(=O)Nc3ccc(F)cc32)c1C [sunitinib]
skin
  alopecia: 15%
  folliculitis: 38%
  hand-foot syndrome (palmopantar erythrodysesthesia): 42%
  nail alterations: 14%
  pruritus: 36%
  skin rash: 46%
  stomatitis: 16%

## CN(C)C/C=C/C(=O)Nc1cc2c(Nc3ccc(F)c(Cl)c3)ncnc2cc1O[C@H]1CCOC1 [Afatinib, afatinib]
[2]; LUX LUNG 3, % of patients
  treatment discontinued due to treatment-related adverse events: 8%
[2]; LUX LUNG 3
  incidence of rash grade 1-2: 72.9%
[2]; LUX-Lung 3 (LL3)
  Asthenia, All grades: 17.5%
  Asthenia, Grade 3: 1.3%
  Asthenia, Grade 4: 0%
  Diarrhea, All grades: 95.2%
  Diarrhea, Grade 3: 14.4%
  Diarrhea, Grade 4: 0%
  Dry skin, All grades: 29.3/NA %
  Dry skin, Grade 3: 0.4/NA %
  Dry skin, Grade 4: 0%
  Hitching, All grades: 18.8%
  Hitching, Grade 3: 0.4/0.4%
  Hitching, Grade 4: 0%
  Nausea, All grades: 17.9%
  Nausea, Grade 3: 0.9%
  Nausea, Grade 4: 0%
  Paronychia/periungual problems, All grades: 56.8%
  Paronychia/periungual problems, Grade 3: 11.4%
  Paronychia/periungual problems, Grade 4: 0%
  Rash/acne, All grades: 89.1%
  Rash/acne, Grade 3: 16.2%
  Rash/acne, Grade 4: 0.0%
  Reduction of appetite, All grades: 20.5%
  Reduction of appetite, Grade 3: 3.1%
  Reduction of appetite, Grade 4: 0%
  Stomatitis/mucositis, All grades: 72.1%
  Stomatitis/mucositis, Grade 3: 8.37%
  Stomatitis/mucositis, Grade 4: 0.4%
  Vomiting, All grades: 17.0%
  Vomiting, Grade 3: 3.1%
  Vomiting, Grade 4: 0%
[3]; control arm (no treatment)
  incidence of rash of any grade: 75.6%
[3]; control arm
  incidence of rash grade ≥ 2: 35.6%
[4]
  frequency of acneiform dermatitis: very common ("very common" (frequency ≥ 1/10))
  frequency of dryness of the skin (xerosis): very common ("very common" (frequency ≥ 1/10))
  frequency of itching: very common ("very common" (frequency ≥ 1/10))
  frequency of palmoplantar erythrodysesthesia syndrome: common ("common" (frequency ≥ 1/100 e < 1/10))
  frequency of skin rash: very common ("very common" (frequency ≥ 1/10))
[5]; ALT, alanine aminotransferase
  ALT increased, All: 9.4%
[5]; AST, aspartate aminotransferase
  AST increased, All: 6.3%
[5]; afatinib 40 mg/day or gefitinib 250 mg/day
  Diarrhea, All: 90.0%
[5]
  Alopecia, All: 10.6%
  Itching, All: 23.1%
  Nausea, All: 16.3%
  Nausea, Grade 3: 1.3%
  Reduction of appetite, All: 16.3%
  Reduction of appetite, Grade 3: 0.6%
  Vomiting, All: 10.6%
  Xerosis, All: 32.5%
  grade 3 or 4 diarrhea: 13%
  grade 3 or 4 rash or acne: 9%
[5]; [8]
  grade 3 or 4 diarrhea, number of patients: 20 patients
  grade 3 or 4 rash or acne, number of patients: 15 patients
[5]; [9]
  Asthenia*, All: 20.6%
  Asthenia*, Grade 3: 5.6%
  Paronychia*, All: 55.6%
  Paronychia*, Grade 3: 1.9%
  Rash/acne*, All: 88.8%
  Rash/acne*, Grade 3: 9.4%
  Stomatitis*, All: 64.4%
  Stomatitis*, Grade 3: 4.4%
[6]; LUX LUNG 6
  incidence of rash grade 1-2: 66.1%
  rate of treatment discontinuation due to adverse events: 2.1%
[6]; LUX-Lung 6 (LL6)
  Asthenia, All grades: 10.0%
  Asthenia, Grade 3: 0.4%
  Asthenia, Grade 4: 0%
  Diarrhea, All grades: 88.3%
  Diarrhea, Grade 3: 5.4%
  Diarrhea, Grade 4: 0%
  Hitching, All grades: 10.9%
  Hitching, Grade 3: 0.4/0.4%
  Hitching, Grade 4: 0%
  Nausea, All grades: 7.5%
  Nausea, Grade 3: 0.0%
  Nausea, Grade 4: 0%
  Paronychia/periungual problems, All grades: 32.6%
  Paronychia/periungual problems, Grade 3: 0.0%
  Paronychia/periungual problems, Grade 4: 0%
  Rash/acne, All grades: 80.8%
  Rash/acne, Grade 3: 14.2%
  Rash/acne, Grade 4: 0.4%
  Reduction of appetite, All grades: 10.0%
  Reduction of appetite, Grade 3: 1.3%
  Reduction of appetite, Grade 4: 0%
  Stomatitis/mucositis, All grades: 51.9%
  Stomatitis/mucositis, Grade 3: 5.4%
  Stomatitis/mucositis, Grade 4: 0.0%
  Vomiting, All grades: 9.6%
  Vomiting, Grade 3: 0.8%
  Vomiting, Grade 4: 0%

## CNC(=O)c1cc(Oc2ccc(NC(=O)Nc3ccc(Cl)c(C(F)(F)F)c3)cc2)ccn1 [sorafenib]
skin
  alopecia: 15%
  folliculitis: 38%
  hand-foot syndrome (palmopantar erythrodysesthesia): 42%
  nail alterations: 14%
  pruritus: 36%
  skin rash: 46%
  stomatitis: 16%

## OC[C@H]1O[C@@H](Oc2cc(O)cc(/C=C/c3ccc(O)cc3)c2)[C@H](O)[C@@H](O)[C@@H]1O [polydatin, 3,4,5'-trihydroxystilbene-3-β-mono-d-glucoside]
[7]; 1.5% polydatin cream prophylaxis, afatinib 40 mg/day, n = 34
  patients who had to discontinue therapy due to toxicity of the antitumor drug: no patient; also recorded: no suspension of treatment
[7]; [10]
  Incidence of skin rash, All grades (%): 41.2%
  Incidence of skin rash, Grade 1 (%): 20.6%
  Incidence of skin rash, Grade 2 (%): 20.6%
  Incidence of skin rash, Grade 3 (%): 0%
[7]; Females, afatinib 40 mg/day
  Incidence of skin rash, All grades (%): 23.5%
  Incidence of skin rash, Grade 1 (%): 5.9%
  Incidence of skin rash, Grade 2 (%): 8.6%
  Incidence of skin rash, Grade 3 (%): 0%
[7]; Males, afatinib 40 mg/day
  Incidence of skin rash, All grades (%): 17.6%
  Incidence of skin rash, Grade 1 (%): 14.7%
  Incidence of skin rash, Grade 2 (%): 12%
  Incidence of skin rash, Grade 3 (%): 0%
[7]; prophylaxis with polydatin, afatinib, n = 34
  patients who had to reduce the dose for the cutaneous toxicity of the drug: no patient
[7]; prophylaxis with polydatin, n = 34
  patients who had to reduce the dose of afatinib from 40 to 30 mg/day due to intestinal toxicity (%): 35.3%

## C#Cc1cccc(Nc2ncnc3cc(OCCOC)c(OCCOC)cc23)c1 [erlotinib]
[1]
  response rates: 60-70%

From patent EP3654984B1, “TOPICAL TREATMENT FOR PREVENTING AND MITIGATING SKIN CYTOTOXICITY DUE TO THERAPY WITH TYROSINE KINASE INHIBITORS” (EUCARE S.R.L., priority 2017, dated 2019)
